What was measured:
[1] = tested on: cytochrome c oxidase in E. coli; experiment: Chronoamperometry of drop-cast bacteria, turnover number per single bacterium; format: cell-based, Escherichia coli
Experimental: (§1) For the localized electrochemical recognition of cytochrome c oxidases in bacteria, target cultures were immobilized onto a gold macroelectrode by drop-casting and immersed into a solution of PBS, containing 1.7 mM TMPD^+• (FIG. 3). The radical cation can be reduced electrochemically at the electrode to TMPD, providing the substrate for the target bacteria to oxidise and convert TMPD back to TMPD^+•. The chemical oxidation of TMPD to TMPD^+• can then be observed electrochemically.
A 3 mm (diameter) gold macroelectrode (Alvatek Ltd, UK) was used as the working electrode for all bioelectrochemical measurements. After polishing, sonication of the macroelectrode was applied for 2 minutes to assure removal of alumina powder from the electrode surface. Bacteria were immobilized onto the electrode by drop casting. For this purpose, the macroelectrode was placed in an electrode holder inside a 50 mL falcon tube, keeping it in an upright position. Bacteria suspension was diluted so that all depositions consisted of 3 μL bacteria suspension representing monolayer concentrations of 0.5 to 30. The falcon tube was closed and the bacteria suspension dried under N2 flow. Evaporation was monitored by eye and N2 flow was stopped the moment all liquid was evaporated. The electrode was removed from the holder and was placed in the electrochemical set up. The electrochemical cell remained thermostated to 37° C. throughout the experiments.
Chronoamperometry was carried out immediately after drop-casting of bacteria to minimize cell death at the electrode. […]
E. coli bacteria, cultured under aerobic conditions, were then investigated. […] The enhanced electrochemical signal in the presence of E. coli can also be recorded during cyclic voltammetry. However, due to the small current range detected, scan rates as low as 2 mV s^−1 need to be applied in order to visualize the oxidation process of TMPD by the bacteria. […] Consequently, chronoamperometry measurements were chosen for quantitative analyses. […]

[2] = tested on: cytochrome c oxidase in B. subtilis; experiment: as above; format: cell-based, Bacillus subtilis; settings: B. subtilis grown on agar; current at 8 s; 37° C.
Experimental: as §1
A 3 mm (diameter) gold macroelectrode (Alvatek Ltd, UK) was used as the working electrode for all bioelectrochemical measurements. After polishing, sonication of the macroelectrode was applied for 2 minutes to assure removal of alumina powder from the electrode surface. Bacteria were immobilized onto the electrode by drop casting. […] Evaporation was monitored by eye and N2 flow was stopped the moment all liquid was evaporated. […]
As during drop-casting both living and dead bacteria in a solution are deposited at an electrode, flow cytometry measurements were performed to estimate the percentage of living cells in solution that contribute to the electrochemical signal (FIG. 7). […] Taking the electrochemical current during chronoamperometry (measurement point at 8 s), a turnover number was determined. […] As such, a turnover number per single bacterium (Tsb) could be calculated using the equation: […]

[3] = Cyclic voltammetry of TMPD-BF4 at gold macroelectrode with DigiSim simulation; format: physicochemical
Experimental: [formula] in which C is the concentration, Iss represents the steady state current, F is the Faraday constant, D is the diffusion coefficient and a is the radius of the electroactive surface of the microelectrode), and its electrochemical behaviour was analysed using cyclic voltammetry. […] Various scan rates, ranging from 30 to 300 mV s^−1, were applied. As the singly oxidized form of TMPD, the TMPD^+• radical cation can be reduced to TMPD and oxidized to TMPD^2+: TMPD^+•+e^− ? TMPD (1) TMPD^2++e^− ? TMPD^+• (2)
in which only the first redox reaction is fully reversible,[25] and will be the focus of this method. Using the commercial simulation software DigiSim® (Basi), theoretical curves were fitted to the experimental data.[26-30] […] A diffusion coefficient DTMPD-BF4 of 1.0×10^−5 cm^2 s^−1 was determined for a solution temperature of 37° C. and fixed in the DigiSim® program. Detailed information about the calculation of DTMPD-BF4 can be found below. Following the approach in the literature,[31] the redox reaction (1) was simulated to determine the Butler-Volmer kinetic parameters of TMPD^+• reduction at the macroelectrode and a fitting of the concentration-independent heterogeneous standard electrochemical rate constant (ks), as well as the standard electrode potential E0, was conducted. To account for minor solution changes related to the oxidation of TMPD by oxygen, the initial concentration ratio of TMPD to TMPD^+• was slightly adjusted for each scan without changing the overall shape or position of the simulated curves. This allowed an offset correction for the presented curves and a capacitive contribution of between 10 to 30 μF was attributed. From the simulations, the standard electrochemical rate constant ks was determined to be equal to or greater than 0.025 cm s^−1, and a standard electrode potential E0 of 0.013 (±0.001) V vs. SCE was determined. […]
A diffusion coefficient (DTMPD-BF4) of 1×10^−5 cm^2 s^−1 was found following the reversible Randles-Ševčík method. […] The diffusion coefficient was determined using the equation

Compound | turnover number per single bacterium (Tsb) ([1]; E. coli grown aerobically (exponential phase)) | turnover number per single bacterium (Tsb) ([1]; E. coli grown in broth to the stationary phase) | turnover number per single bacterium (Tsb) ([1]; E. coli grown to the exponential phase (aerobic), current at 8 s) | turnover number per single bacterium (Tsb) [2] | diffusion coefficient DTMPD-BF4 ([3]; 2.1 mM TMPD-BF4 in PBS pH 7.4, 37° C., Randles-Ševčík, 3 mm gold electrode) | standard electrochemical rate constant ks ([3]; TMPD^+• reduction at gold macroelectrode, fitted by simulation) [cm/s] | standard electrode potential E0 ([3]; TMPD^+•/TMPD couple, fitted by simulation)
CN(C)c1ccc(N(C)C)cc1 [TMPD, N,N,N′,N′-tetramethyl-para-phenylene diamine] | 3.8 (±0.06)×10^8 L mol^−1 s^−1 | 1.8 (±0.3)×10^9 L mol^−1 s^−1 | 3.8 (±0.06)×10^8 L mold s^−1 | 9.8 (±0.3)×10^8 L mol^−1 s^−1 | – | – | –
N,N,N′,N′-tetramethyl-para-phenylene diamine tetrafluoroborate [TMPD-BF4] | – | – | – | – | 1×10^−5 cm^2 s^−1 | ≥ 0.025 | 0.013 (±0.001) V vs. SCE

Source: patent publication US11834697B2, “Electrochemical recognition and quantification of cytochrome c oxidase expression in bacteria” (OXFORD UNIVERSITY INNOVATION LIMITED, priority 2017, dated 2023)
